{
  "source": "patent US20250213528A1",
  "about": "“5-METHOXY-N,N-[…][…] THE TREATMENT OF ANXIETY” (GH RESEARCH IRELAND LIMITED, priority 2022, published 2025)",
  "key": {"[1]": {"experiment": "Pharmacokinetics of 5-MeO-DMT and bufotenine after inhalation of 5-MeO-DMT", "assay_type": "in vivo, human"}, "[2]": {"tested_on": "Salmonella typhimurium TA98, TA100, TA1535 and TA1537", "experiment": "Bacterial mutation test, Salmonella typhimurium", "assay_type": "cell-based", "conditions": "up to 5000 μg/plate, absence and presence of rat liver S-9", "procedure": "(§1) These conditions included treatments at concentrations up to 5000 μg/plate (the maximum recommended concentration according to current regulatory guidelines), in the absence and in the presence of a rat liver metabolic activation system (S-9)."}, "[3]": {"tested_on": "Escherichia coli WP2 uvrA pKM101", "experiment": "Bacterial mutation test, Escherichia coli", "assay_type": "cell-based", "conditions": "up to 5000 μg/plate, absence and presence of rat liver S-9", "procedure": "as §1"}, "[4]": {"tested_on": "patients with postpartum depression (PPD)", "experiment": "Clinical trial of inhaled 5-MeO-DMT in postpartum depression, one patient, IDR 6 mg then 12 mg", "assay_type": "in vivo, human", "conditions": "n=1", "excerpt": "Maternal functioning can, for instance, be assessed using the Barkin Index of Maternal Functioning (BIMF). This index was designed to measure functioning in the year after childbirth. The BIMF is a 20-item self-report measure of functioning. Each item is assigned a score between 0 and 6 so that the maximum total score is 120. The higher the score, the better maternal functioning is rated.\nThe single-arm, open-label clinical trial will involve 15 adult female patients with clinically diagnosed postpartum depression (PPD).\nThe second dose (12 mg) will only be administered if: • a. […] The 6 mg dose was safe and well-tolerated according to the investigator, • c. Any psychoactive effects (PsE) of the prior dose have subsided, and • d. Pre-dose vital parameters and forced expiratory volume in one second (FEV1) are in normal range, or if outside of the normal range, are not clinically significant according to the investigator. • 3. Similarly, a third dose (18 mg) will only be administered if: • a. […] The 12 mg dose was safe and well-tolerated according to the investigator, and • c. Any PsE of the prior dose have subsided, and • d. Pre-dose vital parameters and forced expiratory volume in one second (FEV1) are in normal range, or if outside of the normal range, are not clinically significant according to the investigator.\nThe patients will be assessed for a peak psychedelic experience (based on a patient-scored visual analogue scale, the PE scale), sedation, and other endpoints after dosing. Follow-up visits are planned for Day 1, and Day 7 after the dosing day.\nThe following criteria must be met by all patients considered for clinical trial participation: • 1. Is female and in the age range between 18 and 45 years (inclusive) at screening. • 2. Has a body mass index (BMI) in the range of 18.5 and 35 kg/m^2 (inclusive) at screening. • 3. Meets the trial criteria for PPD as assessed by a trial psychiatrist or registered psychologist: • a. Diagnosis of Major Depressive Disorder without psychotic features, confirmed by the Mini-International Neuropsychiatric Interview (MINI), with peri-partum onset that began no earlier than gestation and no later than the first 4 weeks postpartum. • b. Has a Montgomery-Åsberg Depression Rating Scale (MADRS) total score of equal to or greater than 28 at screening and pre-dose on Day 0. • 6. […] Patients must have a negative pregnancy test at screening and on the pre-test day (Day-1). • 5. Is willing to delay start of other antidepressant or anxiety medication until after the end of the trial at Day 7 and agrees to keep any psychotherapy unchanged during the trial.\nA potential patient who meets any of the following key exclusion criteria will be excluded from participation in this trial: • 1. Has, based on history, psychiatric assessment, and evaluation of the MINI, a current or prior diagnosis of bipolar disorder, a manic or hypomanic episode, a psychotic disorder, Major Depressive Disorder (MDD) or other mood disorder with psychotic features, obsessive compulsive disorder, post-traumatic stress disorder (PTSD), autism spectrum disorder, borderline personality disorder, schizophrenia, delusional disorder, paranoid personality disorder, schizoaffective disorder, clinically significant intellectual disability, or any other psychiatric comorbidity that renders the patient unsuitable for the trial according to the investigator's judgment. • 2. Has one or more first or second degree relatives with a current or previously diagnosed bipolar disorder, psychotic disorder or other mood disorder (including MDD) with psychotic features. • 3."}},
  "data": [
    {"compound": "CN(C)CCc1c[nH]c2ccc(O)cc12", "note": "[bufotenine]", "values": [
      {"measurement": "bufotenine blood concentration above LLOQ", "setting": "[1]; after inhaled 5-MeO-DMT, LLOQ 25 pg/ml", "value": "Only in few samples"},
      {"measurement": "bufotenine blood concentrations under uptitration", "setting": "[1]; subjects receiving an uptitration scheme included", "value": "Substantially similar observations"}
    ]},
    {"compound": "COc1ccc2[nH]cc(CCN(C)C)c2c1", "note": "[5-MeO-DMT]", "values": [
      {"measurement": "mutation induction", "setting": "[2]", "value": "did not induce mutation"},
      {"measurement": "mutation induction", "setting": "[3]", "value": "did not induce mutation"},
      {"measurement": "detectability in the plasma", "setting": "[1]; 3 hours after inhalation, whole dose range 6, 12, 18 mg", "value": "no longer detectable"},
      {"measurement": "pharmacokinetic measurements under uptitration", "setting": "[1]; dosing schemes relying on uptitration, compared with single doses", "value": "Substantially similar results"},
      {"measurement": "standard criteria for MADRS remission (MADRS total score equal or less than 10)", "setting": "[4]", "value": "fulfilled"},
      {"measurement": "standard criteria for MADRS response (at least 50% improvement from baseline)", "setting": "[4]", "value": "fulfilled"},
      {"measurement": "time to clinical remission after administration", "setting": "[4]", "value": "≤ 2", "unit": "h"},
      {"measurement": "durability of clinical response", "setting": "[4]; 5-MeO-DMT given on one day only", "value": "sustained over the 7-day follow-up period"},
      {"measurement": "Total MADRS Improvement", "setting": "[4]; 2 hr", "value": 24},
      {"measurement": "BPRS Tension Improvement", "setting": "[4]; Day 1", "value": 5},
      {"measurement": "Total MADRS Improvement", "setting": "[4]; Day 1", "value": 29},
      {"measurement": "Total MADRS Improvement", "setting": "[4]; Day 7", "value": 28},
      {"measurement": "BIMF item 19 As time goes on, I am getting better at taking care of my baby, score", "setting": "[4]; Day 7, Day 0 score 0", "value": 1},
      {"measurement": "BIMF item 13 I am taking good care of my physical needs, score", "setting": "[4]; Day 7, Day 0 score 4", "value": 5},
      {"measurement": "BIMF item 5 I am able to relax and enjoy time with my baby, score", "setting": "[4]; Day 7, Day 0 score 5", "value": 6},
      {"measurement": "BIMF item 9 I am getting enough encouragement from other people, score", "setting": "[4]; Day 7, Day 0 score 5", "value": 6},
      {"measurement": "BIMF item 10 I trust my own feelings (instincts) when it comes to taking care of my baby, score", "setting": "[4]; Day 7, Day 0 score 5", "value": 6},
      {"measurement": "BIMF item 17 I am able to take care of my baby and my other responsibilities, score", "setting": "[4]; Day 7, Day 0 score 5", "value": 5},
      {"measurement": "BIMF functional domain Adjustment score", "setting": "[4]; Day 7, Day 0 score 5, maximum possible 12", "value": 6},
      {"measurement": "BIMF item 3 I am comfortable with the way I've chosen to feed my baby, score", "setting": "[4]; Day 7, Day 0 score 6", "value": 6},
      {"measurement": "BIMF item 6 There are people in my life that I can trust to care for my baby when I need a break, score", "setting": "[4]; Day 7, Day 0 score 6", "value": 6},
      {"measurement": "BIMF item 8 I am getting enough adult interaction, score", "setting": "[4]; Day 7, Day 0 score 6", "value": 6},
      {"measurement": "BIMF item 12 I am taking good care of my baby's physical needs, score", "setting": "[4]; Day 7, Day 0 score 6", "value": 6},
      {"measurement": "BIMF item 14 I make good decisions about my baby's health and well being, score", "setting": "[4]; Day 7, Day 0 score 6", "value": 6},
      {"measurement": "BIMF item 20 I am satisfied with the job I am doing as a new mother, score", "setting": "[4]; Day 7, Day 0 score 6", "value": 5},
      {"measurement": "BIMF functional domain Self Care score", "setting": "[4]; Day 7, Day 0 score 9, maximum possible 18", "value": 13},
      {"measurement": "BIMF functional domain Infant Care score", "setting": "[4]; Day 7, Day 0 score 12, maximum possible 12", "value": 12},
      {"measurement": "BIMF functional domain Mother-Child Interaction score", "setting": "[4]; Day 7, Day 0 score 15, maximum possible 18", "value": 17},
      {"measurement": "BIMF functional domain Social Support score", "setting": "[4]; Day 7, Day 0 score 17, maximum possible 18", "value": 18},
      {"measurement": "BIMF functional domain Management score", "setting": "[4]; Day 7, Day 0 score 28, maximum possible 36", "value": 33},
      {"measurement": "BIMF functional domain Psychological Well-being score", "setting": "[4]; Day 7, Day 0 score 44, maximum possible 60", "value": 53},
      {"measurement": "BIMF total score improvement", "setting": "[4]; Day 7, from 92 to 105 of possible 120", "value": 14, "unit": "%"},
      {"measurement": "BIMF TOTAL, Δ (Day 7)", "setting": "[4]; Day 7 vs Day 0", "value": 13},
      {"measurement": "BIMF item 3 I am comfortable with the way I've chosen to feed my baby, Δ (Day 7)", "setting": "[4]; Day 7 vs Day 0", "value": 0},
      {"measurement": "BIMF item 5 I am able to relax and enjoy time with my baby, Δ (Day 7)", "setting": "[4]; Day 7 vs Day 0", "value": 1},
      {"measurement": "BIMF item 6 There are people in my life that I can trust to care for my baby when I need a break, Δ (Day 7)", "setting": "[4]; Day 7 vs Day 0", "value": 0},
      {"measurement": "BIMF item 8 I am getting enough adult interaction, Δ (Day 7)", "setting": "[4]; Day 7 vs Day 0", "value": 0},
      {"measurement": "BIMF item 9 I am getting enough encouragement from other people, Δ (Day 7)", "setting": "[4]; Day 7 vs Day 0", "value": 1},
      {"measurement": "BIMF item 10 I trust my own feelings (instincts) when it comes to taking care of my baby, Δ (Day 7)", "setting": "[4]; Day 7 vs Day 0", "value": 1},
      {"measurement": "BIMF item 11 I take a little time each week to do something for myself, Δ (Day 7)", "setting": "[4]; Day 7 vs Day 0", "value": 1},
      {"measurement": "BIMF item 12 I am taking good care of my baby's physical needs, Δ (Day 7)", "setting": "[4]; Day 7 vs Day 0", "value": 0},
      {"measurement": "BIMF item 13 I am taking good care of my physical needs, Δ (Day 7)", "setting": "[4]; Day 7 vs Day 0", "value": 1},
      {"measurement": "BIMF item 14 I make good decisions about my baby's health and well being, Δ (Day 7)", "setting": "[4]; Day 7 vs Day 0", "value": 0},
      {"measurement": "BIMF item 17 I am able to take care of my baby and my other responsibilities, Δ (Day 7)", "setting": "[4]; Day 7 vs Day 0", "value": 0},
      {"measurement": "BIMF item 19 As time goes on, I am getting better at taking care of my baby, Δ (Day 7)", "setting": "[4]; Day 7 vs Day 0", "value": 1},
      {"measurement": "BIMF item 20 I am satisfied with the job I am doing as a new mother, Δ (Day 7)", "setting": "[4]; Day 7 vs Day 0", "value": "−1"},
      {"measurement": "BPRS Tension Improvement", "setting": "[4]; Discharge", "value": 5}
    ]}
  ]
}
